# Data from article PMC12261321, “Inhibitors of the Bacterioferritin Ferredoxin Complex Dysregulate Iron Homeostasis and Kill and Biofilm-Embedded Cells” (ACS Infectious Diseases, 2025).
# Tested on: A. baumannii 5075
# Test: Siderophores secreted by A. baumannii (CAS assay)
# Type: cell-based
# Conditions: 5075, 20 h, M63 without citrate; compounds 40 μM, SB-17–140 80 μM
# Description: Unlike pyoverdine, the siderophores secreted by are not fluorescent. Consequently, to measure siderophore secretion from planktonic cultures of , we decided to utilize the Chrome azurol S (CAS) assay, a well-known universal colorimetric method used to detect siderophores. , To this end, planktonic cells of 5075 were cultured for 20 h in the presence of sub-MICs of a representative number of inhibitors in M63 media not containing citrate, followed by analysis of the cell-free spent media by the CAS assay. […] These observations support the hypothesis that active compounds engage their target (Ab Bfr) and block the Ab Bfr–Bfd complex in , trapping iron in Ab Bfr and causing intracellular iron limitation, which in turn elicits a siderophore overproduction phenotype. […]
# reported13 with some modifications. Cells were cultured in modified M63 media (2 g / L ( N H 4)2SO4, 13.6 g/L KH2PO4 (Sigma Aldrich), 2 g/L glucose, 4 g/L cit ric acid, 5 g/ L technical grade casamino acids (B D scientific), 0.24 g/L MgSO4 (Alfa A esar), and 0.025% (w/v) HPMC, pH 7.0 adjusted with KOH) . […]
# Determination of Siderophores Secreted by A. baumannii . The chromo azurol S (CAS) solution was prepared as previously reported18 with some modifications. The blue dye solution (0.6 g/L CAS ( ACROS Organics), 100 μM FeCl3·6H2O, and 0.73 g/L hexadecyltrimethylammonium bromide (HDTMA, ACROS Organics) was autoclaved and stored in the dark. The MM9-PIPES buffer solution (3 g/L KH2PO4, 5 g/L NaCl, 10 g/L NH4C l, 32.24 g/L piperazine -1,4-bis-2- ethanesulfonic acid (PIPES , Sigma Aldrich), pH 6.75) was sterilized using a 0.22 µm syringe filter (VWR). Prior to every experimen t, blue dye solution (0.5 mL) was mixed with 4.5 mL of MM9-PIPES solution. An overnight culture of A. baumannii 5075 was diluted to OD600 = 0.0001 with modified M63 media (no citric acid) supplemented with 4 μ M Fe and transferred to a 96-well plate, wh ere it was cul tured for 20 […]
# h at 35 °C and 205 cpm i n a plate reader (Synergy H1, BioTek). The treated cell cultures contained compound at the concentrations indicat ed in the caption of Figure 8B and […], whereas the untreated control contained 0.1% DMSO. 700 μ L was centrifuged at 16,200 x g for 10 min. 200 μ L of the clarified supern atant was mixed with the 200 μL of CAS solution and allowed to incubate at room temperatu re in the dark for 2 h prior to recording a UV-Vis spectrum (200 nm to 800 nm) in a 1.0 cm quartz cuvette with the aid of a Cary 60 UV-Vi s spectrophotometer (Agilent Technologies). The fold- change in siderophore secreted by the treated vs. untreated cells was calculated using equation S3, where Tr indicates treated cells, Un indicates DMSO control cells, […]
# solution of fresh modified M63 media. The experiment was carried out in at least five biological replicates for […]
# FFggFFFF cch aammggaa =(ΔΔAA 630 )UUii (S3)
# Measurement of Dissociation Constant (Kd) R ecombinant Pa BfrB was expressed in E. coli and purified as previously reported.19 Apo-BfrB (devoid of heme) was utilized for the measurements to prevent heme-driven fluorescence quenching. A 0.5 mL solution contai ning 0.01 µM apo Pa-BfrB in PBS (pH = 7.4) containing0.5% DMSO was plac ed into a 1 cm quartz cuvette wh ere it was titrated with aliq uots of compound dissolved in a 50% (v/v) PBS/DMSO solution. The fluorescence quenching brought by the addition of each aliquot was monitored with the aid of an Agilent Cary Fluorometer , with excitation at 280 nm, emission at 320- 470 nm, 10 x10 nm slit width, and an average of 5 scans per spectrum. Th e binding assay included at least 8 aliquots spanning from ~ 0.1 […]
# A control titration was carried out by titrati ng compound into PBS buffer. The Kd was cal culated by fitting the data to equation S4, w here Fb is the fraction bound and Fmax is the fraction bound at saturating compound concentration.
# FFbb = FFmmmmmm ? [ccccmmccccccmmcc ]? (S4) […]
row,Compound,"siderophore secretion, ΔA 630 nm normalized to OD600"
1,O=C1NC(=O)c2c(NCc3ccc(Br)cc3O)cccc21 [EB-5-61],secrete significantly higher levels of siderophore
2,O=C1NC(=O)c2c(NCc3cccc(Br)c3O)cccc21 [EB-5-73],do not elicit a siderophore overproduction phenotype
3,"O=C1NC(=O)c2c(NCc3cc(Cl)ccc3O)cccc21 [KM-5-25, 4-((5-Chloro-2-hydroxybenzyl)amino)isoindoline-1,3-dione]",secrete significantly higher levels of siderophore
4,O=C1NC(=O)c2c(NCc3c(O)cccc3Cl)cccc21 [KM-5-29],secrete significantly higher levels of siderophore
5,"O=C1NC(=O)c2c(NCc3cc(Br)ccc3O)cccc21 [KM-5-35, 4-((5-Bromo-2-hydroxybenzyl)amino)isoindoline-1,3-dione]",secrete significantly higher levels of siderophore
6,O=C1NC(=O)c2c(NCc3cccc4c3CCN4)cccc21 [SB-17-140],do not elicit a siderophore overproduction phenotype
